Measured values as given in ChEMBL document CHEMBL1201862, “PubChem BioAssay data set” (2004).
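Briefly, cells in 96-well plates were exposed to five compound concentrations for 48 h, and endpoints were estimated by linear interpolation. Abbreviation: GI50, concentration required for 50% inhibition of growth.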 The source made the active and inactive calls. No stated cut-off is given here; in the data, active = GI50 up to about 1.1 µM and inactive = higher.

Assays:
Experiment in all cases: NCI-60 cell line screen, 48 h
MOLT-4 = test system: MOLT-4
LXFL 529 = test system: LXFL 529
OVCAR-8 = test system: OVCAR-8
NCI-H226 = test system: NCI-H226
CCRF-CEM = test system: CCRF-CEM
NCI-H460 = test system: NCI-H460
HOP-92 = test system: HOP-92
U-251 = test system: U-251
SK-MEL-2 = test system: SK-MEL-2
EKVX = test system: EKVX
M14 = test system: M14
HCT-15 = test system: HCT-15
COLO 205 = test system: COLO 205
NCI-H522 = test system: NCI-H522
UO-31 = test system: UO-31
SK-MEL-28 = test system: SK-MEL-28
SW-620 = test system: SW-620
LOX IMVI = test system: LOX IMVI

With `CCOC(=O)C(=O)Nc1c(C)cccc1C(C)C` the GI50 (MOLT-4) was > 100 µM (inactive), the GI50 (LXFL 529) was > 100 µM (inactive) and the GI50 (OVCAR-8) was > 100 µM (inactive). For the same compound, the GI50 (NCI-H226) was > 100 µM (inactive), the GI50 (CCRF-CEM) was > 100 µM (inactive) and the GI50 (NCI-H460) was > 100 µM (inactive). For the same compound, the GI50 (HOP-92) was > 100 µM (inactive), the GI50 (U-251) was > 100 µM (inactive) and the GI50 (SK-MEL-2) was > 100 µM (inactive). For the same compound, the GI50 (EKVX) was > 100 µM (inactive), the GI50 (M14) was > 100 µM (inactive) and the GI50 (HCT-15) was over 100 µM. For the same compound, the GI50 (COLO 205) was > 100 µM (inactive), the GI50 (NCI-H522) was > 100 µM (inactive) and the GI50 (UO-31) was > 100 µM (inactive). For the same compound, the GI50 (SK-MEL-28) was > 100 µM (inactive) and the GI50 (SW-620) was > 100 µM (inactive).
For `CC(=O)NC(ON1C(=O)COc2ccccc21)C(Cl)(Cl)Cl` (configuration not stated), the GI50 (MOLT-4) was > 100 µM (inactive), the GI50 (LXFL 529) was > 100 µM (inactive) and the GI50 (OVCAR-8) was > 100 µM (inactive). The GI50 (NCI-H226) was 33.4 µM (inactive), the GI50 (NCI-H460) was > 100 µM (inactive) and the GI50 (HOP-92) was > 100 µM (inactive). For the same compound, the GI50 (U-251) was > 100 µM (inactive), the GI50 (SK-MEL-2) was > 100 µM (inactive) and the GI50 (LOX IMVI) was > 100 µM (inactive). The GI50 (M14) was > 100 µM (inactive), the GI50 (HCT-15) was over 100 µM and the GI50 (COLO 205) was > 100 µM (inactive). The GI50 (NCI-H522) was > 100 µM (inactive), the GI50 (UO-31) was > 100 µM (inactive) and the GI50 (SK-MEL-28) was > 100 µM (inactive). For the same compound, the GI50 (SW-620) was > 100 µM (inactive).
`Cc1ccccc1NC(=O)Cc1nc2ccccc2s1` was tested, and the GI50 (MOLT-4) was 17.9 µM (inactive), the GI50 (LXFL 529) was 16.4 µM (inactive) and the GI50 (OVCAR-8) was 17.7 µM (inactive). For the same compound, the GI50 (NCI-H226) was 18.9 µM (inactive), the GI50 (CCRF-CEM) was 9.51 µM (inactive) and the GI50 (NCI-H460) was 19.4 µM (inactive). For the same compound, the GI50 (U-251) was 11.8 µM (inactive), the GI50 (SK-MEL-2) was 16 µM (inactive) and the GI50 (EKVX) was 19.7 µM (inactive). The GI50 (LOX IMVI) was 16.7 µM (inactive), the GI50 (M14) was 12.6 µM (inactive) and the GI50 (COLO 205) was 30.7 µM (inactive). For the same compound, the GI50 (NCI-H522) was 15.3 µM (inactive), the GI50 (UO-31) was 11.5 µM (inactive) and the GI50 (SK-MEL-28) was 17.7 µM (inactive). For the same compound, the GI50 (SW-620) was 19.8 µM (inactive).
With `[Zn+2][N+]12CCN3CCN4CCN(CC1)[PH]432` (configuration not stated) the GI50 (MOLT-4) was > 100 µM (inactive), the GI50 (LXFL 529) was > 100 µM (inactive) and the GI50 (OVCAR-8) was > 100 µM (inactive). The GI50 (NCI-H226) was > 100 µM (inactive), the GI50 (CCRF-CEM) was > 100 µM (inactive) and the GI50 (NCI-H460) was > 100 µM (inactive). The GI50 (U-251) was > 100 µM (inactive), the GI50 (SK-MEL-2) was > 100 µM (inactive) and the GI50 (EKVX) was > 100 µM (inactive). For the same compound, the GI50 (LOX IMVI) was > 100 µM (inactive), the GI50 (M14) was > 100 µM (inactive) and the GI50 (HCT-15) was over 100 µM. The GI50 (COLO 205) was > 100 µM (inactive), the GI50 (NCI-H522) was > 100 µM (inactive) and the GI50 (UO-31) was > 100 µM (inactive). The GI50 (SK-MEL-28) was > 100 µM (inactive) and the GI50 (SW-620) was > 100 µM (inactive).
In the case of `CCOc1ccc(NC(=O)CCC(=O)NN)cc1`, the GI50 (MOLT-4) is reported as > 100 µM (inactive), the GI50 (LXFL 529) is reported as > 100 µM (inactive) and the GI50 (OVCAR-8) is reported as > 100 µM (inactive). For the same compound, the GI50 (NCI-H226) was > 100 µM (inactive), the GI50 (CCRF-CEM) was > 100 µM (inactive) and the GI50 (NCI-H460) was > 100 µM (inactive). The GI50 (HOP-92) was > 100 µM (inactive), the GI50 (U-251) was > 100 µM (inactive) and the GI50 (SK-MEL-2) was > 100 µM (inactive). The GI50 (EKVX) was > 100 µM (inactive), the GI50 (LOX IMVI) was > 100 µM (inactive) and the GI50 (M14) was > 100 µM (inactive). For the same compound, the GI50 (HCT-15) was 68.7 µM, the GI50 (COLO 205) was > 100 µM (inactive) and the GI50 (NCI-H522) was > 100 µM (inactive). For the same compound, the GI50 (UO-31) was > 100 µM (inactive), the GI50 (SK-MEL-28) was > 100 µM (inactive) and the GI50 (SW-620) was > 100 µM (inactive).
With `CC1CC(c2ccccc2)=Nc2ccccc2S1(=O)=O` (configuration not stated) the GI50 (MOLT-4) was 16.8 µM (inactive), the GI50 (LXFL 529) was 15.3 µM (inactive) and the GI50 (OVCAR-8) was 21.1 µM (inactive). For the same compound, the GI50 (CCRF-CEM) was 19.7 µM (inactive), the GI50 (NCI-H460) was 16.3 µM (inactive) and the GI50 (HOP-92) was 27.9 µM (inactive). For the same compound, the GI50 (U-251) was 18.1 µM (inactive), the GI50 (SK-MEL-2) was 14.8 µM (inactive) and the GI50 (EKVX) was 20.4 µM (inactive). The GI50 (LOX IMVI) was 17.3 µM (inactive), the GI50 (M14) was 20.7 µM (inactive) and the GI50 (HCT-15) was 24.1 µM. For the same compound, the GI50 (COLO 205) was 20.4 µM (inactive), the GI50 (NCI-H522) was 17.3 µM (inactive) and the GI50 (UO-31) was 15.6 µM (inactive). For the same compound, the GI50 (SK-MEL-28) was 16.3 µM (inactive) and the GI50 (SW-620) was 16.2 µM (inactive).
With `O=C(/C=C1/NC(=O)CS1)Nc1ccccc1` the GI50 (MOLT-4) was > 100 µM (inactive), the GI50 (LXFL 529) was > 100 µM (inactive) and the GI50 (OVCAR-8) was > 100 µM (inactive). For the same compound, the GI50 (NCI-H226) was > 100 µM (inactive), the GI50 (CCRF-CEM) was > 100 µM (inactive) and the GI50 (NCI-H460) was > 100 µM (inactive). For the same compound, the GI50 (HOP-92) was > 100 µM (inactive), the GI50 (U-251) was > 100 µM (inactive) and the GI50 (SK-MEL-2) was 89.5 µM (inactive). For the same compound, the GI50 (EKVX) was > 100 µM (inactive), the GI50 (LOX IMVI) was > 10 µM (inactive) and the GI50 (M14) was > 100 µM (inactive). The GI50 (COLO 205) was > 100 µM (inactive), the GI50 (NCI-H522) was > 100 µM (inactive) and the GI50 (UO-31) was > 100 µM (inactive). For the same compound, the GI50 (SK-MEL-28) was > 100 µM (inactive) and the GI50 (SW-620) was > 100 µM (inactive).
In the case of `CN(C)CCNC(=O)c1ccccc1Nc1c(Cl)cccc1Cl`, the GI50 (MOLT-4) is reported as 13.1 µM (inactive), the GI50 (LXFL 529) is reported as 17.7 µM (inactive) and the GI50 (OVCAR-8) is reported as 14.1 µM (inactive). For the same compound, the GI50 (NCI-H226) was 11.5 µM (inactive), the GI50 (CCRF-CEM) was 12.7 µM (inactive) and the GI50 (U-251) was 11.6 µM (inactive). The GI50 (EKVX) was 8.2 µM (inactive), the GI50 (LOX IMVI) was 12.8 µM (inactive) and the GI50 (M14) was 15.4 µM (inactive). The GI50 (HCT-15) was 14.8 µM, the GI50 (COLO 205) was 11.6 µM (inactive) and the GI50 (UO-31) was 4.52 µM (inactive). The GI50 (SK-MEL-28) was 14.8 µM (inactive) and the GI50 (SW-620) was 14.1 µM (inactive).
